Experimental data published in ChEMBL document CHEMBL4321847, “Discovery of 6-(2,4-Dichlorophenyl)-5-[4-[(3S)-1-(3-fluoropropyl)pyrrolidin-3-yl]oxyphenyl]-8,9-dihydro-7H-benzo[7]annulene-2-carboxylic acid (SAR439859), a Potent and Selective Estrogen Receptor Degrader (SERD) for the Treatment of Estrogen-Receptor-Positive Breast Cancer” (J Med Chem, 2020).
Active and inactive are the calls of the source. The calls are words filed in the database; no cut-off is given here.

Legend:
[1] = in vitro; details: rat, microsomes
Description: Metabolic stability in rat microsomes assessed as total metabolism

[2] = in vitro; details: mouse, microsomes
Description: Metabolic stability in mouse microsomes assessed as total metabolism

[3] = in vitro; details: human, microsomes
Description: Metabolic stability in human liver microsomes assessed as total metabolism

[4] = physchem; details: buffer, pH 7.4
Description: Lipophilicity, logD of the compound in phosphate buffer at pH 7.4

[5] = in vivo; details: dog, po, 10 mg/kg
[6] = in vivo; details: mouse
Description: Half life in mouse at 3 mg/kg, iv or 10 mg/kg, po

[7] = in vivo; details: mouse, iv, 3 mg/kg
Description: Clearance in mouse at 3 mg/kg, iv or 10 mg/kg, po

[8] = system: MCF7; details: Homo sapiens; on T/C: time not given here
[9] = in vivo; details: mouse, po, 10 mg/kg
[10] = system: MCF7; format: functional, Homo sapiens; details: at 25 mg/kg; on T/C: time not given here
[11] = in vivo; details: dog, iv, 3 mg/kg
Description: Clearance in dog at 3 mg/kg, iv or 10 mg/kg, po

[12] = in vivo; details: dog
Description: Half life in dog at 3 mg/kg, iv or 10 mg/kg, po

[13] = in vivo; details: mouse, iv, 3 mg/kg; remark: listed apart in the source
Description: Volume of distribution at steady state in mouse at 3 mg/kg, iv or 10 mg/kg, po

[14] = in vivo; details: rat, iv, 3 mg/kg
Description: Volume of distribution at steady state in rat at 3 mg/kg, iv or 10 mg/kg, po

[15] = in vivo; details: rat
Description: Half life in rat at 3 mg/kg, iv or 10 mg/kg, po

[16] = in vivo; details: rat, iv, 3 mg/kg; remark: listed apart in the source
Description: Clearance in rat at 3 mg/kg, iv or 10 mg/kg, po

[17] = in vivo; details: dog, iv, 3 mg/kg; remark: listed apart in the source
Description: Volume of distribution at steady state in dog at 3 mg/kg, iv or 10 mg/kg, po

[18] = in vivo; details: rat, po, 10 mg/kg

Question: For `O=C(O)c1ccc2c(c1)CCCC(c1ccccc1Cl)=C2c1ccc(O[C@H]2CCN(CCCF)C2)cc1`, which metabolised [1] is on record?
Answer: Its metabolised is 4%.

Question: And the metabolised [2]?
Answer: Its metabolised is 5%.

Question: And the metabolised [3]?
Answer: Its metabolised is 0%.

Question: What about the logD [4] of the same compound?
Answer: The logD was 2.63.

Question: With `Oc1ccc(C2=C(c3ccc(O[C@H]4CCN(CCCF)C4)cc3)c3ccc(O)cc3CCC2)cc1` as the compound, how does the metabolised [1] read?
Answer: Its metabolised is 48%.

Question: And the metabolised [2]?
Answer: Its metabolised is 25%.

Question: And the metabolised [3]?
Answer: Its metabolised is 55%.

Question: Which metabolised [1] does the source give for `O=C(O)c1ccc2c(c1)CCCC(c1ccc(OC(F)(F)F)cc1)=C2c1ccc(O[C@H]2CCN(CCCF)C2)cc1` here?
Answer: The metabolised was 2%.

Question: And the metabolised [2]?
Answer: The metabolised was 10%.

Question: What about the metabolised [3] of the same compound?
Answer: Its metabolised is 20%.

Question: What about the logD [4] of the same compound?
Answer: Its logD is 3.43.

Question: For `Oc1ccc2c(c1)CCCC(c1ccc3[nH]ncc3c1)=C2c1ccc(O[C@H]2CCN(CCCF)C2)cc1`, which metabolised [1] is on record?
Answer: Its metabolised is 74%.

Question: And the metabolised [2]?
Answer: Its metabolised is 65%.

Question: What about the metabolised [3] of the same compound?
Answer: Its metabolised is 72%.

Question: What about the logD [4] of the same compound?
Answer: Its logD is 2.35.

Question: Which metabolised [1] does the source give for `Oc1ccc2c(c1)CCCC(c1ccccc1Cl)=C2c1ccc(O[C@H]2CCN(CCCF)C2)cc1` here?
Answer: The metabolised was 53%.

Question: And the metabolised [2]?
Answer: Its metabolised is 31%.

Question: What about the metabolised [3] of the same compound?
Answer: Its metabolised is 41%.

Question: What about the logD [4] of the same compound?
Answer: Its logD is 4.11.

Question: Which results are given for `Oc1ccc2c(c1)CCCC(c1cccc(Cl)c1F)=C2c1ccc(O[C@H]2CCN(CCCF)C2)cc1`?
Answer: metabolised [1]: 45%; metabolised [2]: 41%; metabolised [3]: 37%; logD [4]: 4.32

Question: Which results are given for `O=C(O)c1ccc2c(c1)CCCC(c1cccc(F)c1Cl)=C2c1ccc(O[C@H]2CCN(CCCF)C2)cc1`?
Answer: metabolised [1]: 2%; metabolised [2]: 0%; metabolised [3]: 28%; logD [4]: 2.59

Question: For `Oc1ccc2c(c1)CCCC(c1ccc3[nH]ccc3c1)=C2c1ccc(O[C@H]2CCN(CCCF)C2)cc1`, which metabolised [1] is on record?
Answer: The metabolised was 75%.

Question: What about the metabolised [2] of the same compound?
Answer: The metabolised was 61%.

Question: What about the metabolised [3] of the same compound?
Answer: Its metabolised is 39%.

Question: And the logD [4]?
Answer: The logD was 3.49.

Question: Which results are given for `O=C(O)c1ccc2c(c1)CCCC(c1ccc(SC(F)(F)F)cc1)=C2c1ccc(O[C@H]2CCN(CCCF)C2)cc1`?
Answer: metabolised [1]: 4%; metabolised [2]: 12%; metabolised [3]: 10%; logD [4]: 3.46

Question: For `Oc1ccc2c(c1)C(c1ccc(O[C@H]3CCN(CCCF)C3)cc1)=C(c1ccc(F)cc1Cl)CCC2`, which metabolised [1] is on record?
Answer: Its metabolised is 80%.

Question: What about the metabolised [2] of the same compound?
Answer: Its metabolised is 30%.

Question: And the metabolised [3]?
Answer: Its metabolised is 57%.

Question: With `Oc1ccc2c(c1)CCCC(c1ccc(F)cc1Cl)=C2c1ccc(O[C@H]2CCN(CCCF)C2)cc1` as the compound, how does the metabolised [1] read?
Answer: Its metabolised is 44%.

Question: And the metabolised [2]?
Answer: The metabolised was 20%.

Question: What about the metabolised [3] of the same compound?
Answer: The metabolised was 31%.

Question: What about the logD [4] of the same compound?
Answer: Its logD is 4.59.

Question: Which results are given for `Oc1ccc(C2=C(c3ccc(O[C@H]4CCN(CCCF)C4)cc3)c3cc(O)ccc3CCC2)cc1`?
Answer: metabolised [1]: 58%; metabolised [2]: 55%; metabolised [3]: 49%

Question: Which metabolised [1] does the source give for `Oc1ccc2c(c1)CCCC(c1ccc(Cl)cc1Cl)=C2c1ccc(O[C@H]2CCN(CCCF)C2)cc1` here?
Answer: Its metabolised is 17%.

Question: And the metabolised [2]?
Answer: The metabolised was 18%.

Question: What about the metabolised [3] of the same compound?
Answer: Its metabolised is 30%.

Question: What about the logD [4] of the same compound?
Answer: Its logD is 5.27.

Question: Which metabolised [1] does the source give for `Oc1ccc2c(c1)CCCC(c1ccncc1)=C2c1ccc(O[C@H]2CCN(CCCF)C2)cc1` here?
Answer: Its metabolised is 60%.

Question: What about the metabolised [2] of the same compound?
Answer: The metabolised was 39%.

Question: And the metabolised [3]?
Answer: The metabolised was 70%.

Question: What about the logD [4] of the same compound?
Answer: Its logD is 2.11.

Question: For `Oc1ccc2c(c1)CCCC(c1ccccc1)=C2c1ccc(O[C@H]2CCN(CCCF)C2)cc1`, which metabolised [1] is on record?
Answer: The metabolised was 53%.

Question: What about the metabolised [2] of the same compound?
Answer: The metabolised was 44%.

Question: And the metabolised [3]?
Answer: The metabolised was 34%.

Question: And the logD [4]?
Answer: Its logD is 4.

Question: Which results are given for `O=C(O)c1ccc2c(c1)CCCC(c1ccc(Cl)cc1Cl)=C2c1ccc(O[C@H]2CCN(CCCF)C2)cc1` [AMCENESTRANT]?
Answer: bioavailability [5]: 54%; half-life [6]: 1.98 h; clearance [7]: 32 mL/min/kg; TGI [8]: Active; metabolised [1]: 4%; bioavailability [9]: 62%; T/C [10]: -28%; clearance [11]: 0.5 mL/min/kg; metabolised [2]: 13%; half-life [12]: 9.8 h; metabolised [3]: 12%; Vd [13]: 6.1 L/kg; Vd [14]: 0.83 L/kg; half-life [15]: 4.13 h; clearance [16]: 3.17 mL/min/kg; logD [4]: 3.25; Vd [17]: 0.5 L/kg; bioavailability [18]: 76%

Question: Which results are given for `Oc1ccc2c(c1)CCCC(c1cccnc1)=C2c1ccc(O[C@H]2CCN(CCCF)C2)cc1`?
Answer: metabolised [1]: 80%; metabolised [2]: 31%; metabolised [3]: 70%; logD [4]: 2.11

Question: For `O=C(O)c1ccc2c(c1)CCCC(c1ccc(Cl)cc1)=C2c1ccc(O[C@H]2CCN(CCCF)C2)cc1`, which metabolised [1] is on record?
Answer: The metabolised was 1%.

Question: What about the metabolised [2] of the same compound?
Answer: The metabolised was 15%.

Question: And the metabolised [3]?
Answer: The metabolised was 2%.

Question: And the logD [4]?
Answer: The logD was 2.9.
